Data on six compounds can be found in US20260176284A1, “Compounds with Anti-KRAS Mutated Tumor Activity” (Trasveda Ltd., priority 2022, published 2026).

Assay [1] has as its system KRAS G12D mutated AGS human gastric adenocarcinoma cells. The experiment in a line: Proliferation inhibition of KRAS G12D mutant AGS cells (CellTiter-Glo, 3 days; IC50 and single-point inhibition rate at 1 μM). Type of assay: cell-based. The conditions noted are these: 72 h, 3 days incubation, max concentration 10 μM. Here is the method:
This experiment assessed and validated the proliferation inhibitory activity of some compounds of the present invention against KRAS G12D mutant AGS cells.
Incubate at 37° C., 5% CO2, 95% humidity.
The following materials, instruments, and reagents were used in this experiment: Fetal Bovine Serum FBS (GIBCO, Cat #10099-141); CellTiter-Glo® Luminescent Cell Viability Assay (Promega, Cat #G7572); 96-well clear flat-bottom black-wall plate (Corning®, Cat #3603); SpectraMax multimode microplate reader (MD, 2104-0010A); CO2 Incubator (Thermo Scientific, Model 3100 Series); Biosafety cabinet (Thermo Scientific, Model 1300 Series A2); Inverted microscope (Olympus, CKX41SF); AGS cell line was purchased from Nanjing Kebai Biotechnology Co., Ltd., under the lot number CBP60476.
Cell culture and inoculation: The cells in the logarithmic growth phase were harvested, and cell counting was performed using a platelet counter. The cell viability was detected by Trypan Blue exclusion method to ensure that the cell viability was above 90%. The cell concentration was adjusted. Then, 90 μL of the cell suspension was added to each well of a 96-well plate respectively, and the cells in the 96-well plate were cultured at 37° C. and 5% CO2.
Drug dilution and addition: a) For the preparation of drugs for single-point inhibition rate determination: A 10-fold concentrated drug solution was prepared. 10 μL of the drug solution was added to each well of the 96-well plate inoculated with cells to make the working concentration 1 μM, and three replicate wells were set for each drug concentration; b) For the preparation of drugs for IC50 determination: A 10-fold concentrated drug solution was prepared. 10 μL of the drug solution was added to each well of the 96-well plate inoculated with cells to make the maximum working concentration 10 μM, with a 3.16× dilution and a total of 9 concentrations. Three replicate wells were set for each drug concentration. The cells in the 96-well plate with the added drugs were incubated at 37° C. and 5% CO2 for another 3 days, and then the CTG assay was performed.
The CTG reagent was thawed, and the cell plate was equilibrated to room temperature for 30 minutes. An equal volume of CTG solution was added to each well, and the plate was shaken on an orbital shaker for 5 minutes to lyse the cells. The cell plate was placed at room temperature for 20 minutes to stabilize the luminescence signal, and then the luminescence value was read.
The data were analyzed using GraphPad Prism 7.0 software. The data were fitted by nonlinear S-curve regression to obtain the dose-response curve, and the IC50 value was calculated accordingly.
(In ATP-based viability assays light output follows the ATP content of the culture.)

Assay [2] concerns KRAS G12D mutated AGS (3D) cells. Nature of the assay: Proliferation inhibition of KRAS G12D mutated AGS (3D) cells (methylcellulose 3D culture, CTG, 120 h). In kind it is cell-based. The conditions noted are these: Homo sapiens. As for the experimental part: The inhibitory effect of representative compounds on the 3D proliferation of the AGS cell line was evaluated by non-adherent, spherical growth in a methylcellulose 3D culture medium.
The following materials, instruments and reagents were used in this experiment: Culture medium RPMI1640 (HyClone, Cat #SH30809.01); Fetal bovine serum FBS (GBICO, Cat #10099-141); CellTiter-Glo® Luminescent Cell Viability Assay (Novozymes Nanjing, Cat #DD1101-04); 96-well Polystyrene microplates (black-wall) (Greiner Bio one, Cat. #655096); Methylcellulose (SIGMA, CAS: 9004-67-5); AGS cells (KC-0405, Kangyuan Bochuang Biotechnology (Beijing) Co., Ltd.); Multifunctional microplate reader (BMG LABTECH, CLARIOstar® Plus); CO2 incubator (Thermo Scientific, Model 3100 Series).
Cell Culture and Inoculation: The cells in the logarithmic growth phase were harvested and cell counting was performed using a platelet counter. The cell viability was detected by Trypan Blue exclusion method to ensure that the cell viability was above 90%. The cell concentration was adjusted. After there were no visible air bubbles in the cell suspension, 180 μL of the cell suspension was added to each well of a 96-well plate respectively, so that the final concentration of methylcellulose was 0.65% and the number of cells was 2400 per well. The cells in the 96-well plate were cultured overnight at 37° C., 5% CO2 and 95% humidity.
The drug dilution and administration were carried out as follows: A 10-fold concentrated drug solution was prepared with the culture medium. 20 μL of the drug solution was added to each well of the 96-well plate inoculated with cells to make the maximum working concentration 10 μM, with a 3.16× dilution, a total of 9 concentrations. Three replicate wells were set for each drug concentration and the DMSO content was 0.1%. The cells in the 96-well plate with the added drugs were continuously cultured at 37° C., 5% CO2 and 95% humidity for 120 h, and then a CTG analysis was performed.
The CTG reagent was thawed and the cell plate was equilibrated to room temperature for 30 minutes. An equal volume of CTG solution was added to each well, and the plate was shaken on an orbital shaker for 5 minutes to lyse the cells. The cell plate was placed at room temperature for 20 minutes to stabilize the luminescence signal, and then the luminescence value was read.
The data were analyzed using GraphPad Prism 7.0 software. The data were fitted by nonlinear S-curve regression to obtain the dose-response curve, and the IC50 value was calculated accordingly. Cell survival rate (%)=(LumTest drug−LumMedium control)/(LumCell control−LumMedium control)×100%.

Assay [3] has as its system KRAS G12D mutated AGS human gastric adenocarcinoma cells. Nature of the assay: Proliferation inhibition of KRAS G12D mutant AGS cells, another experiment with similar protocol (includes MRTX1133). Type of assay: cell-based. As for the experimental part:
In another experiment, using a protocol similar to the one described above, the inhibitory activity of some representative compounds of the present invention against KRAS G12D mutated AGS human gastric adenocarcinoma cells was determined.
The synthesis of compound MRTX1133 was performed according to the method described in J. Med. Chem. 2022, 65, 4, 3123-3133.

A further assay concerns GP2D cells. The experiment in a line: 3D proliferation inhibition of KRAS G12D mutated tumor cells, GP2D. In kind it is cell-based, human. The conditions noted are these: 3D methylcellulose culture, CTG, 120 hours. From the text:
(§1) This experiment evaluated and verified the proliferation inhibitory activity of the representative compounds of the present invention against the following five strains of KRAS-related tumor cells.
(§2) The following materials, reagents and instruments were used in this experiment: Five strains of cells were all from Nanjing Kebai Biotechnology Co., Ltd. (GP2D, CBP60010; HPAC, CBP60539; AsPC-1, CBP60546; KP-4, CBP60541; Panc 04.03, CBP60683); DMEM (Gibco, 11965092); RPMI-1640 (Gibco, SH30809.01); HPAC complete medium (Cobioer, CBP60539M); Fetal bovine serum FBS (Gibco, 10091-148); Insulin (Gibco, 41400045); Methylcellulose (methylcellulose, Sigma, 9004-67-5); Phosphate-buffered saline DPBS (Comning, 21-031-CVC); CellTiter-Glo® Luminescent Cell Viability Assay (Promega, Cat #G7573); 96-well clear flat-bottom black-wall plate (Corning, 3603); EnVision multilabel plate reader (PerkinElmer #2105); CO2 incubator (Thermo Scientific, Model 3 71 Series).
(§3) A sterilized 1% methylcellulose 3D culture medium was prepared in advance. The cells in the logarithmic growth phase were harvested, and a Countstar automatic cell counter based on the principle of the classic trypan blue staining method was used for cell counting and detecting cell viability to ensure that the cell viability was above 90%. The cell concentrations of GP2D, HPAC, AsPC-1, KP-f4, and Panc 04.03 were adjusted so that the final concentration of methylcellulose was 0.65%, and the mixture was allowed to stand after being well-mixed. After there were no visible air bubbles in the cell suspension, 80 μL of the cell suspension was added to each well of a 96-well plate, with a total of 1000-2000 cells. The cells in the 96-well plate were cultured overnight at 37° C., 5% CO2, and 95% humidity.
(§4) Drug Preparation for IC50 Determination: First, a 10 mM DMSO stock solution of each compound was prepared. For the first dilution, using DMSO as the solvent, each compound was first diluted to 5 mM and then serially diluted 3-fold to obtain 9 concentrations, preparing DMSO solutions of each compound at different concentrations. For the second dilution, a 5-fold diluted solution of each compound was prepared by a 1:100 dilution, using the complete medium as the solvent. […]
(§5) The cells in the 96-well plate with the added drugs were further cultured at 37° C. and 5% CO2 for 120 hours, and then a CTG analysis was performed. […] The cell plate was placed at room temperature for 20 minutes to stabilize the luminescence signal. The luminescence value was read, and the data were collected.
(§6) The data were analyzed using GraphPad Prism 9.0 software. Non-linear S-curve regression was used to fit the data to obtain the dose-response curve, and the IC50 value (nM) was calculated accordingly. […]

The next assay concerns HPAC cells. Nature of the assay: 3D proliferation inhibition of KRAS G12D mutated tumor cells, HPAC. In kind it is cell-based, human. The conditions noted are these: 3D methylcellulose culture, CTG, 120 hours.
Source text: as §1, §2, §3, §4, §5, §6

A further assay has as its system KP-4 cells. Nature of the assay: 3D proliferation inhibition of KRAS G12D mutated tumor cells, KP-4. In kind it is cell-based. The conditions noted are these: CTG, 120 hours.
Source text: as §1, §2, §3, §4, §5, §6

A further assay relates to Panc 04.03 cells. The experiment in a line: 3D proliferation inhibition of KRAS G12D mutated tumor cells, Panc 04.03. Type of assay: cell-based. The conditions noted are these: CTG, 120 hours.
Source text: as §1, §2, §3, §4, §5, §6

The next assay concerns AsPC-1 cells. Nature of the assay: 3D proliferation inhibition of KRAS G12D mutated tumor cells, AsPC-1. Type of assay: cell-based. The conditions noted are these: Homo sapiens, ASPC1, 3D methylcellulose culture, CTG, 120 hours.
Source text: as §1, §2
A sterilized 1% methylcellulose 3D culture medium was prepared in advance. The cells in the logarithmic growth phase were harvested, and a Countstar automatic cell counter based on the principle of the classic trypan blue staining method was used for cell counting and detecting cell viability to ensure that the cell viability was above 90%. The cell concentrations of GP2D, HPAC, AsPC-1, KP-f4, and Panc 04.03 were adjusted so that the final concentration of methylcellulose was 0.65%, and the mixture was allowed to stand after being well-mixed. […]
as §5, §6

Structures are written as SMILES.

Take `C#Cc1c(F)ccc2cc(O)cc(-c3c(F)cc4c(N5CC6CCC(C5)N6)nc(OC[C@]5(C)CN(CCF)CCC5(F)F)nc4c3F)c12` (atropisomer, axis not shown; (Ra)) [Example 44, (Ra)-4-(4-((1R,5S)-3,8-diazabicyclo[3.2.1]octan-3-yl)-2-(((S)-4,4-difluoro-1-(2-fluoroethyl)-3-methylpiperidin-3-yl)methoxy)-6,8-difluoroquinazolin-7-yl)-5-ethynyl-6-fluoronaphthalen-2-ol]: the IC50 – broadly, the concentration that inhibits the measured activity by half – in assay [1] worked out at 217 nM; in assay [2], 118 nM.

As to `C#Cc1c(F)ccc2cc(O)cc(-c3c(F)cc4c(N5CC6CCC(C5)N6)nc(OC[C@]5(C)CN(CC=C)CCC5(F)F)nc4c3F)c12` (atropisomer, axis not shown; (Ra)) [Example 42], the half-inhibitory concentration (IC50) was found to be 150 nM in assay [1] and 47 nM in assay [2].

As for `CN1CC/C(=C\F)[C@](C)(COc2nc(N3C[C@H]4CC[C@@H](C3)N4)c3cc(Cl)c(-c4c(F)ccc5sc(N)c(C#N)c45)c(F)c3n2)C1` (single isomer, unassigned) [Example 324-1], the IC50 in assay [3] was found to be 4 nM; with GP2D cells it was 0.39 nM; in the assay on HPAC cells it was 4.1 nM; in the assay with KP-4 cells (3D methylcellulose culture), 4.74 nM; in the assay with Panc 04.03 cells (3D methylcellulose culture), 1.34 nM.

Regarding `C#Cc1c(F)ccc2cc(O)cc(-c3c(F)cc4c(N5CC6CCC(C5)N6)nc(OC[C@]5(C)CN(C)CCC5(F)F)nc4c3F)c12` [Example 6-2], the figures for the IC50 in assay [1] and in assay [2] were 32 nM and 17 nM, respectively.

Take `C#Cc1c(F)ccc2cc(O)cc(-c3ncc4c(N5CC6CCC(C5)N6)nc(OC[C@@]56CCCN5C[C@H](F)C6)nc4c3F)c12` [MRTX1133, reference compound]: the IC50 is 28 nM in assay [3] (Homo sapiens); 3 nM in the assay on GP2D cells (Homo sapiens, GP2d); 8.19 nM with HPAC cells (Homo sapiens, HPAC); 18.3 nM with AsPC-1 cells; 42.6 nM with KP-4 cells (Homo sapiens, KP-4, 3D methylcellulose culture); 20.6 nM in the assay with Panc 04.03 cells (Homo sapiens, Panc 04.03, 3D methylcellulose culture).

Regarding `C#Cc1c(F)ccc2cc(O)cc(-c3c(F)cc4c(N5CC6CCC(C5)N6)nc(OC[C@]5(C)CN(CC)CCC5(F)F)nc4c3F)c12` (atropisomer, axis not shown; (Ra)) [Example 43, (Ra)-4-(4-((1R,5S)-3,8-diazabicyclo[3.2.1]octan-3-yl)-2-(((S)-1-ethyl-4,4-difluoro-3-methylpiperidin-3-yl)methoxy)-6,8-difluoroquinazolin-7-yl)-5-ethynyl-6-fluoronaphthalen-2-ol], the IC50 in assay [1] is 37 nM; in assay [2], 11 nM.
